In patent publication US20210038607A1, “OXADIAZOLYLTHIOPHENE DERIVATIVES USEFUL AS HISTONE DEACETYLASE INHIBITORS” (Karus Therapeutics Limited, priority 2018, published 2021):

Legend:
[1] = biological target: T1, Human HDAC1 (Homo sapiens, UniProt Q13547); experiment: HDAC1 biochemical assay, AMC-labeled peptide substrate; settings: read-out: HDAC Isoform IC50 (nM) 1
T1 construct: full length with C-terminal His-tag and C-terminal FLAG-tag; His (C); FLAG (C); host or cells: baculovirus expression system
In short: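 Baculovirus-expressed full-length human HDAC1 with His and FLAG tags, 0.3 ng/ul, incubated 1 h at 30° C with compound and 50 μM RHKK(Ac)AMC in Tris pH 8.0 buffer with BSA and 1% DMSO. Developer then releases AMC from deacetylated substrate; fluorescence read at 360/460 nm.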

[2] = biological target: T2, Human HDAC5 (Homo sapiens, UniProt Q9UQL6); experiment: HDAC5 biochemical assay, class IIa-specific substrate; settings: read-out: HDAC Isoform IC50 (nM) 5
T2 construct: full length with C-terminal His tag, MW=51.1 kDa; His (C); host or cells: baculovirus expression system
In short: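 Full-length C-terminal His-tagged HDAC5 from baculovirus (0.05 ng/ul) incubated 30 min at room temperature with 50 μM Boc-Lys(trifluoroacetyl)-AMC and compound, Tris pH 8.0 buffer with BSA, 1% DMSO. Developer then releases AMC; fluorescence 360/460 nm.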

[3] = biological target: T3, Human HDAC2 (Homo sapiens, UniProt Q92769); experiment: HDAC2 biochemical assay, AMC-labeled peptide substrate; settings: read-out: HDAC Isoform IC50 (nM) 2
T3 construct: full length with C-terminal GST-tag; GST (C); host or cells: baculovirus expression system
In short: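 Full-length human HDAC2 with C-terminal GST tag, baculovirus-expressed, at 0.07 ng/ul with 50 μM RHKK(Ac)AMC substrate in Tris-HCl pH8.0 buffer with BSA, 1% DMSO final. Incubated 1 hour at 30° C with compounds, then developer added; fluorescence read at 360/460 Ex/Em.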

[4] = biological target: T4, Human HDAC8 (Homo sapiens, UniProt Q9BY41); experiment: HDAC8 biochemical assay, AMC-labeled peptide substrate; settings: read-out: HDAC Isoform IC50 (nM) 8
T4 construct: full length with C-terminal His tag, MW=42.6 kDa; His (C); host or cells: baculovirus expression system
T4 sequence (Q9BY41 1-377): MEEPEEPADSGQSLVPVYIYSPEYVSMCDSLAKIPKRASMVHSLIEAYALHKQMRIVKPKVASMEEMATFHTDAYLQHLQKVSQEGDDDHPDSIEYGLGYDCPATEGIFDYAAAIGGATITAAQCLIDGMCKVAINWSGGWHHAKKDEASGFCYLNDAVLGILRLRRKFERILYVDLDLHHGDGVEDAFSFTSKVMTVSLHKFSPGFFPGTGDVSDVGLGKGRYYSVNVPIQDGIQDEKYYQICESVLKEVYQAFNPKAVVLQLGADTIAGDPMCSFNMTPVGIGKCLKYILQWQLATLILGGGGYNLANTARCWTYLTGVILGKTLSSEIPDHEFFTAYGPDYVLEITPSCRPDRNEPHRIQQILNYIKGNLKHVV
In short: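 Full-length human HDAC8 with C-terminal His tag, baculovirus-expressed, 1 ng/ul, with 100 µM RHK(Ac)K(Ac)AMC substrate in Tris-HCl pH8.0 buffer with BSA, 1% DMSO. Incubated 2 h at 30° C, then developer added to cleave deacetylated substrate; fluorescence read at 360/460 Ex/Em.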

[5] = biological target: T5, Human HDAC10 (Homo sapiens, UniProt Q969S8); experiment: HDAC10 biochemical assay, AMC-labeled peptide substrate; settings: read-out: HDAC Isoform IC50 (nM) 10
T5 construct: Human HDAC10 (a.a. 1-481); GST (N); His (C); host or cells: baculovirus expression system
T5 sequence (Q969S8 1-481): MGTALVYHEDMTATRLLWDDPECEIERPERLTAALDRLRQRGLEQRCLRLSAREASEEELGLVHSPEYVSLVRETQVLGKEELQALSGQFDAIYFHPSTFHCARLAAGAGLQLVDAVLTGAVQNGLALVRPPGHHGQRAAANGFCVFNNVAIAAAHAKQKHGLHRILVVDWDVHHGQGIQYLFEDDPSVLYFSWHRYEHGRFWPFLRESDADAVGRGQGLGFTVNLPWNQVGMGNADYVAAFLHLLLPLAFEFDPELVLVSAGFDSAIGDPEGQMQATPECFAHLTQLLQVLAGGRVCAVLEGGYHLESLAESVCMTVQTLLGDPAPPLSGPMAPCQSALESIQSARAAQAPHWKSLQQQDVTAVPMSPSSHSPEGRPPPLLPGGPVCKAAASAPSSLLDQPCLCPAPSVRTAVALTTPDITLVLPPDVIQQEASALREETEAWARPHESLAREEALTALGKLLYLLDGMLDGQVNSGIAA
In short: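 Baculovirus-expressed GST/His-tagged human HDAC10 (aa 1-481), 12 ng/ul, incubated with 50 μM RHKK(Ac)AMC in Tris pH 8.0 buffer with BSA and 1% DMSO, 2 h at 30 °C. Developer then releases AMC, read at 360/460 nm.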

T3 sequence (Q92769 whole entry, canonical isoform): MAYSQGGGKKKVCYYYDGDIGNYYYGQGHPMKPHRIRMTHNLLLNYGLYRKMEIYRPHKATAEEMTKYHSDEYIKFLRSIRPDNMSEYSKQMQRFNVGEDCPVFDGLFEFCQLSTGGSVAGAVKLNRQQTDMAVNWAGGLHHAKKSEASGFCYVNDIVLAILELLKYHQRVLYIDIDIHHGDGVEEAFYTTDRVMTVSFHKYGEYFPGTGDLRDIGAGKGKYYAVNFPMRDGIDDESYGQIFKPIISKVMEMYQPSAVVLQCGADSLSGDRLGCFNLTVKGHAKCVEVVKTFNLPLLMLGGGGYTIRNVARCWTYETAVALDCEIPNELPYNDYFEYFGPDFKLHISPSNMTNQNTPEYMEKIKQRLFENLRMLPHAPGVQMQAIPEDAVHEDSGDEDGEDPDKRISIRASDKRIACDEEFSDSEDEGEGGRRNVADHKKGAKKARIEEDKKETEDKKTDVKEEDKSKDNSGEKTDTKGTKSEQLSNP
T2 sequence (Q9UQL6 656-1122 limits assumed): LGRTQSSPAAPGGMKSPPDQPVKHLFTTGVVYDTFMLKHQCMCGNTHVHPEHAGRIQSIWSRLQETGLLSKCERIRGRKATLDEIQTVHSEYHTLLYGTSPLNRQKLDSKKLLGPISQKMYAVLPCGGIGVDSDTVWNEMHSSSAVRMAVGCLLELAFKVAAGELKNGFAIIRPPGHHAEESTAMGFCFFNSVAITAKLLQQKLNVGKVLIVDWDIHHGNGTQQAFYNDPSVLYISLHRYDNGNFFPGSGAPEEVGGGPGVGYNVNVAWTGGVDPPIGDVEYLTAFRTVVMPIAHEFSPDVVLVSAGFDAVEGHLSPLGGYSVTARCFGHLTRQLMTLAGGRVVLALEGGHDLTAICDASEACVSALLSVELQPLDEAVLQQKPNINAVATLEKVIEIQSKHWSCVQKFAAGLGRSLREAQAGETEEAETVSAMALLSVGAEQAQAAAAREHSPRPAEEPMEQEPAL
T1 sequence (Q13547 whole entry, canonical isoform): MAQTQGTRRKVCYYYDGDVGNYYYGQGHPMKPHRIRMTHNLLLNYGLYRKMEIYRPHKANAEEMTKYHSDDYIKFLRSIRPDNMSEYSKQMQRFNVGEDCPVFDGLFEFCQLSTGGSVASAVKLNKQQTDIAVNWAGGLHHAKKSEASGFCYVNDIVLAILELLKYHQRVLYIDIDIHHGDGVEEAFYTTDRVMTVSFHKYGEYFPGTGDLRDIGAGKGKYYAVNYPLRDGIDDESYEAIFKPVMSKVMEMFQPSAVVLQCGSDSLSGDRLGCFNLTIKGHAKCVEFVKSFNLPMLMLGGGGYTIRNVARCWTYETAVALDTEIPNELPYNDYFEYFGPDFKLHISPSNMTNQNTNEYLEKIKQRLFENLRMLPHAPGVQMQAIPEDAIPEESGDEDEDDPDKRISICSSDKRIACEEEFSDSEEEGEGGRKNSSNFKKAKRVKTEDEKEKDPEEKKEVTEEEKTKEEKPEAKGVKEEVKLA

In the case of `CS(=O)(=O)c1nccc(N(Cc2ccc(-c3noc(C(F)(F)F)n3)s2)c2cnccn2)n1` [Example CE, 2-Methanesulfonyl-N-(pyrazin-2-yl)-N-({5-[5-(trifluoromethyl)-1,2,4-oxadiazol-3-yl]thiophen-2-yl}methyl)pyrimidin-4-amine], the IC50 [1] is reported as ≤ 10000 nM and the IC50 [2] is reported as ≤ 1000 nM.
`FC(F)(F)c1nc(-c2ccc(CN(c3ccccn3)c3cnccn3)s2)no1` [Example V, N-(Pyridin-2-yl)-N-({5-[5-(trifluoromethyl)-1,2,4-oxadiazol-3-yl]thiophen-2-yl}methyl)pyrazin-2-amine] was tested, and the IC50 [1] was > 10000 nM, the IC50 [3] was > 10000 nM and the IC50 [2] was ≤ 10000 nM. The IC50 [4] was > 10000 nM and the IC50 [5] was > 10000 nM.
With `FC(F)(F)c1nc(-c2ccc(CN(c3ccncn3)c3cnccn3)s2)no1` [Example BZ, N-(Pyrazin-2-yl)-N-({5-[5-(trifluoromethyl)-1,2,4-oxadiazol-3-yl]thiophen-2-yl}methyl)pyrimidin-4-amine] the IC50 [1] was > 10000 nM, the IC50 [3] was > 10000 nM and the IC50 [2] was ≤ 500 nM. The IC50 [4] was ≤ 10000 nM and the IC50 [5] was > 10000 nM.
`FC(F)(F)c1ccc(N(Cc2ccc(-c3noc(C(F)(F)F)n3)s2)c2cnccn2)nn1` [Example DH, N-(Pyrazin-2-yl)-6-(trifluoromethyl)-N-({5-[5-(trifluoromethyl)-1,2,4-oxadiazol-3-yl]thiophen-2-yl}methyl)pyridazin-3-amine] was tested, and the IC50 [1] was ≤ 10000 nM, the IC50 [3] was > 10000 nM and the IC50 [2] was ≤ 1000 nM. For the same compound, the IC50 [4] was ≤ 10000 nM and the IC50 [5] was > 10000 nM.
In the case of `FC(F)(F)c1nc(-c2ccc(CN(c3cncnc3)c3cnccn3)s2)no1` [Example CR, N-(Pyrazin-2-yl)-N-({5-[5-(trifluoromethyl)-1,2,4-oxadiazol-3-yl]thiophen-2-yl}methyl)pyrimidin-5-amine], the IC50 [1] is reported as > 10000 nM, the IC50 [3] is reported as > 10000 nM and the IC50 [2] is reported as ≤ 500 nM. The IC50 [4] was ≤ 10000 nM and the IC50 [5] was > 10000 nM.
For `FC(F)(F)c1nc(-c2ccc(CN(c3cnccn3)c3ccc(N4CCCC4)nn3)s2)no1` [Example DI, N-(Pyrazin-2-yl)-6-(pyrrolidin-1-yl)-N-({5-[5-(trifluoromethyl)-1,2,4-oxadiazol-3-yl]thiophen-2-yl}methyl)pyridazin-3-amine], the IC50 [1] was ≤ 10000 nM, the IC50 [3] was > 10000 nM and the IC50 [2] was ≤ 1000 nM. For the same compound, the IC50 [4] was ≤ 10000 nM and the IC50 [5] was > 10000 nM.
With `CS(=O)(=O)c1ccc(N(Cc2ccc(-c3noc(C(F)(F)F)n3)s2)c2cnccn2)nn1` [Example DL, 6-Methanesulfonyl-N-(pyrazin-2-yl)-N-({5-[5-(trifluoromethyl)-1,2,4-oxadiazol-3-yl]thiophen-2-yl}methyl)pyridazin-3-amine] the IC50 [1] was ≤ 10000 nM, the IC50 [3] was > 10000 nM and the IC50 [2] was ≤ 500 nM. The IC50 [4] was ≤ 10000 nM and the IC50 [5] was > 10000 nM.
